From ChEMBL document CHEMBL1201862, “PubChem BioAssay data set” (2004)
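Exposure lasted 48 hours, with cells grown in 96-well plates and compounds tested at five concentrations. GI50: concentration for 50% inhibition of growth.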 Activity calls are given as the source filed them. Rule as the data show it: active = GI50 up to about 1.1 µM and inactive = higher.

Columns and labels:
Assay in all cases: NCI tumour cell line growth inhibition, 48 h
[1] = system: CAKI-1
[2] = system: SF-268
[3] = system: M19-MEL
[4] = system: SK-MEL-5
[5] = system: Malme-3M
[6] = system: SNB-19
[7] = system: KM-20L2
[8] = system: NCI-H460
[9] = system: OVCAR-4
[10] = system: EKVX
[11] = system: U-251
[12] = system: LXFL 529
[13] = system: HL-60
[14] = system: HT-29
[15] = system: CCRF-CEM
[16] = system: UO-31
[17] = system: HOP-92
[18] = system: OVCAR-8
[19] = system: NCI-H522
[20] = system: K562
[21] = system: IGROV-1
[22] = system: SK-MEL-2
[23] = system: RXF 393
[24] = system: XF498
[25] = system: SF-295
[26] = system: KM12
[27] = system: RPMI-8226
[28] = system: UACC-257
[29] = system: SNB-75
[30] = system: SN12C
[31] = system: A498
[32] = system: ACHN
[33] = system: NCI-H23
[34] = system: 786-0
[35] = system: HOP-18
[36] = system: RXF 631
[37] = system: A549
[38] = system: MOLT-4
[39] = system: HCC 2998
[40] = system: UACC-62
[41] = system: HCT-15
[42] = system: COLO 205
[43] = system: LOX IMVI
[44] = system: OVCAR-5
[45] = system: SK-OV-3
[46] = system: NCI-H226
[47] = system: OVCAR-3
[48] = system: SF-539
[49] = system: DLD-1
[50] = system: SK-MEL-28
[51] = system: DMS-273
[52] = system: SW-620
[53] = system: M14
[54] = system: TK-10
[55] = system: HOP-62
[56] = system: SNB-78
[57] = system: HCT-116
[58] = system: DMS-114
[59] = system: SR

Question: What does the source list for `O=C(O)CNS(=O)(=O)c1ccc(NC(=O)c2ccc([N+](=O)[O-])cc2)cc1`?
Answer: GI50 [1]: > 100 µM (inactive); GI50 [2]: > 100 µM (inactive); GI50 [3]: > 100 µM (inactive); GI50 [4]: > 100 µM (inactive); GI50 [5]: > 100 µM (inactive); GI50 [6]: > 100 µM (inactive); GI50 [7]: > 100 µM (inactive); GI50 [8]: > 100 µM (inactive); GI50 [9]: > 100 µM (inactive); GI50 [10]: > 100 µM (inactive); GI50 [11]: > 100 µM (inactive); GI50 [12]: > 100 µM (inactive); GI50 [13]: > 100 µM (inactive); GI50 [14]: > 100 µM (inactive); GI50 [15]: > 100 µM (inactive); GI50 [16]: > 100 µM (inactive); GI50 [17]: > 100 µM (inactive); GI50 [18]: > 100 µM (inactive); GI50 [19]: 79.6 µM (inactive); GI50 [20]: > 100 µM (inactive); GI50 [21]: > 100 µM (inactive); GI50 [22]: > 100 µM (inactive); GI50 [23]: > 100 µM (inactive); GI50 [24]: > 100 µM (inactive); GI50 [25]: > 100 µM (inactive); GI50 [26]: > 100 µM (inactive); GI50 [27]: > 100 µM (inactive); GI50 [28]: > 100 µM (inactive); GI50 [29]: > 100 µM (inactive); GI50 [30]: > 100 µM (inactive); GI50 [31]: > 100 µM (inactive); GI50 [32]: > 100 µM (inactive); GI50 [33]: > 100 µM (inactive); GI50 [34]: > 100 µM (inactive); GI50 [35]: > 100 µM (inactive); GI50 [36]: > 100 µM (inactive); GI50 [37]: > 100 µM (inactive); GI50 [38]: > 100 µM (inactive); GI50 [39]: > 100 µM (inactive); GI50 [40]: > 100 µM (inactive); GI50 [41]: > 100 µM; GI50 [42]: > 100 µM (inactive); GI50 [43]: > 100 µM (inactive); GI50 [44]: > 100 µM (inactive); GI50 [45]: > 100 µM (inactive); GI50 [46]: > 100 µM (inactive); GI50 [47]: > 100 µM (inactive); GI50 [48]: > 100 µM (inactive); GI50 [49]: > 100 µM (inactive); GI50 [50]: > 100 µM (inactive); GI50 [51]: > 100 µM (inactive); GI50 [52]: > 100 µM (inactive); GI50 [53]: > 100 µM (inactive); GI50 [54]: > 100 µM (inactive)

Question: `CN(C)c1cccc(-c2cc(O)c3cc4c(cc3n2)OCO4)c1` was tested. Which GI50 [1] did it give?
Answer: > 100 µM (inactive)

Question: What about the GI50 [2] of the same molecule?
Answer: 0.327 µM (active)

Question: What about the GI50 [3] of the same molecule?
Answer: 0.401 µM (active)

Question: What about the GI50 [4] of the same molecule?
Answer: 0.0776 µM (active)

Question: And the GI50 [5]?
Answer: 0.131 µM (active)

Question: And the GI50 [6]?
Answer: 0.365 µM (active)

Question: What about the GI50 [7] of the same molecule?
Answer: 0.216 µM (active)

Question: What about the GI50 [8] of the same molecule?
Answer: 0.278 µM (active)

Question: And the GI50 [9]?
Answer: 0.705 µM (active)

Question: What about the GI50 [10] of the same molecule?
Answer: 25.6 µM (inactive)

Question: And the GI50 [11]?
Answer: 0.247 µM (active)

Question: And the GI50 [12]?
Answer: 0.13 µM (active)

Question: And the GI50 [13]?
Answer: 0.112 µM (active)

Question: And the GI50 [14]?
Answer: 0.202 µM (active)

Question: And the GI50 [15]?
Answer: 0.204 µM (active)

Question: What about the GI50 [16] of the same molecule?
Answer: 0.667 µM (active)

Question: And the GI50 [17]?
Answer: 2.15 µM (inactive)

Question: And the GI50 [18]?
Answer: 0.363 µM (active)

Question: What about the GI50 [19] of the same molecule?
Answer: 0.0505 µM (active)

Question: And the GI50 [20]?
Answer: 0.146 µM (active)

Question: What about the GI50 [21] of the same molecule?
Answer: 0.625 µM (active)

Question: What about the GI50 [22] of the same molecule?
Answer: 0.221 µM (active)

Question: And the GI50 [55]?
Answer: 0.274 µM (active)

Question: What about the GI50 [23] of the same molecule?
Answer: 0.241 µM (active)

Question: What about the GI50 [24] of the same molecule?
Answer: 0.144 µM (active)

Question: And the GI50 [25]?
Answer: 0.136 µM (active)

Question: And the GI50 [26]?
Answer: 0.0456 µM (active)

Question: And the GI50 [27]?
Answer: 0.473 µM (active)

Question: What about the GI50 [28] of the same molecule?
Answer: 0.916 µM (active)

Question: And the GI50 [29]?
Answer: 0.054 µM (active)

Question: And the GI50 [56]?
Answer: 62.8 µM (inactive)

Question: And the GI50 [30]?
Answer: 0.632 µM (active)

Question: What about the GI50 [31] of the same molecule?
Answer: 0.137 µM (active)

Question: What about the GI50 [32] of the same molecule?
Answer: 0.378 µM (active)

Question: And the GI50 [33]?
Answer: 0.326 µM (active)

Question: And the GI50 [34]?
Answer: 0.262 µM (active)

Question: And the GI50 [57]?
Answer: 0.138 µM (active)

Question: And the GI50 [36]?
Answer: 0.815 µM (active)

Question: And the GI50 [37]?
Answer: 0.343 µM (active)

Question: What about the GI50 [38] of the same molecule?
Answer: 0.3 µM (active)

Question: What about the GI50 [39] of the same molecule?
Answer: 0.193 µM (active)

Question: And the GI50 [40]?
Answer: 0.136 µM (active)

Question: What about the GI50 [41] of the same molecule?
Answer: 0.285 µM

Question: What about the GI50 [42] of the same molecule?
Answer: 0.2 µM (active)

Question: And the GI50 [43]?
Answer: 0.192 µM (active)

Question: What about the GI50 [44] of the same molecule?
Answer: 0.274 µM (active)

Question: And the GI50 [45]?
Answer: 0.123 µM (active)

Question: What about the GI50 [46] of the same molecule?
Answer: 0.315 µM (active)

Question: What about the GI50 [47] of the same molecule?
Answer: 0.0807 µM (active)

Question: What about the GI50 [48] of the same molecule?
Answer: 0.171 µM (active)

Question: What about the GI50 [58] of the same molecule?
Answer: 0.236 µM (active)

Question: And the GI50 [49]?
Answer: 0.206 µM (active)

Question: What about the GI50 [50] of the same molecule?
Answer: 0.0553 µM (active)

Question: What about the GI50 [59] of the same molecule?
Answer: 0.708 µM (active)

Question: And the GI50 [51]?
Answer: 0.203 µM (active)

Question: What about the GI50 [52] of the same molecule?
Answer: 0.124 µM (active)

Question: And the GI50 [53]?
Answer: 0.139 µM (active)

Question: And the GI50 [54]?
Answer: 1.83 µM (inactive)
